Test results taken from patent US20220031736A1, “USE OF ANIONIC CLAY IN PREPARING LEAD-REMOVING MEDICINE” (priority 2019, published 2022).
“And” between values parts separate entries of the source, which are not always exact repeats. Identical values can stand only once.

Tested on: rats with chronic lead poisoning
Test: Chronic rat lead poisoning model, administration for treatment
Type: in vivo
Experimental: After the model was successfully established, the lead was stopped and the rates were fed with distilled water from the 31st day. […] The rats in the positive medicine group were given a dose of 10 mg/kg of sodium dimercaptosuccinate by intragastric administration, and all the intragastric subjects were given in equal volume twice a day for 30 days. On the 60th day, blood samples were collected. Brain, liver and femur samples were collected and stored in liquid nitrogen for later use. After wet digestion, the blood samples and tissues of each group were tested for content of lead by inductively coupled plasma mass spectrometry (ICP-MS), and the lead-removing rates were counted.
All the data were processed by SPSS 20.0 statistical software. Every group of measurement data was expressed by mean±[…] (mean±SD), and all of which were tested for homogeneity of variance by Levene method first. If the variances were homogeneous, single factor analysis of variance was used among multiple groups, and two-sample T test was used between two groups. If the hypothesis of parameter test was unreasonable, Kruskal-Wallis test was used among multiple groups, while Wilcoxon test was used between two groups. p<0.05 or p<0.01 was statistically significant.
40 male SD rats were randomly divided into five groups including a normal group, a model group, a positive medicine group (sodium dimercaptosuccinate group), a high-dose magaldrate group and a low-dose magaldrate group according to their body weights, and each group included 8 rats. Except the rats in the normal group were given ultrapure water, the rats in the model group, the positive medicine group, and the magaldrate groups of each dose drank 0.5% lead acetate ultrapure water solution for 30 days, resulting in chronic lead-exposed models. After the model was successfully established, the lead was stopped and the rates were fed with distilled water from the 31st day. The rats in the normal group were given an equal volume of 0.5% CMC-Na solution by intragastric administration, while the rats in the high-dose magaldrate group and the low-dose magaldrate group were given a high dose of 0.6 g/kg and a low dose of 0.3 g/kg respectively by intragastric administration. The rats in the positive medicine group were given a dose of 10 mg/kg of sodium dimercaptosuccinate by intragastric administration, and all the intragastric subjects were given in equal volume twice a day for 30 days. On the 60th day, blood samples were collected. Brain, liver and femur samples were collected and stored in liquid nitrogen for later use. After wet digestion, the blood samples and tissues of each group were tested for content of lead by inductively coupled plasma mass spectrometry (ICP-MS), and the lead-removing rates were counted. […]

[1] = 60th day, positive medicine 0.01 g/kg intragastric twice a day for 30 days, mean ± SD

O=C([O-])C(S)C(S)C(=O)[O-].[Na+].[Na+] (stereo not shown) [Sodium dimercaptosuccinate, sodium dimercaptosuccinate]
Content of lead in blood [1]: 0.058 ± 0.01 µg/g and 0.069 ± 0.01 µg/g and 0.059 ± 0.01 µg/g and 0.073 ± 0.01 µg/g
Content of lead in brain [1]: 0.129 ± 0.03 µg/g and 0.218 ± 0.04 µg/g and 0.178 ± 0.04 µg/g and 0.165 ± 0.05 µg/g
Femur content of lead [1]: 32.085 ± 4.73 µg/g and 35.006 ± 3.92 µg/g and 28.075 ± 3.25 µg/g and 33.478 ± 4.86 µg/g
Removing rate, lead in bones (positive medicine group 10 mg/kg, versus model group): 0.00%
